In the NIST ThermoML archive (doi:10.1021/je900550v):

Details: 101.33 kPa, Liquid; for speed of sound: Pulse-echo method; for mass density: Vibrating tube method

CC(C)C(=O)[O-].C[NH2+]CCO [2-hydroxy-N-methylethanaminium isobutyrate]
Details | mass density [kg/m3] | speed of sound [m/s] | viscosity [mPa·s]
278.15 K | 1056.12 | 1670.2 | –
278.4 K | 1055.96 | 1669.4 | –
278.65 K | 1055.8 | 1668.6 | –
278.9 K | 1055.64 | 1667.8 | –
279.15 K | 1055.48 | 1667 | –
279.4 K | 1055.32 | 1666.2 | –
279.65 K | 1055.16 | 1665.4 | –
279.9 K | 1055 | 1664.7 | –
280.15 K | 1054.85 | 1663.9 | –
280.4 K | 1054.68 | 1663.1 | –
280.65 K | 1054.52 | 1662.3 | –
280.9 K | 1054.36 | 1661.5 | –
281.15 K | 1054.2 | 1660.8 | –
281.4 K | 1054.04 | 1660 | –
281.65 K | 1053.88 | 1659.2 | –
281.9 K | 1053.72 | 1658.5 | –
282.15 K | 1053.56 | 1657.7 | –
282.4 K | 1053.4 | 1657 | –
282.65 K | 1053.24 | 1656.2 | –
282.9 K | 1053.08 | 1655.4 | –
283.15 K | 1052.92 | 1654.7 | –
283.4 K | 1052.76 | 1653.9 | –
283.65 K | 1052.6 | 1653.2 | –
283.9 K | 1052.43 | 1652.4 | –
284.15 K | 1052.27 | 1651.7 | –
284.4 K | 1052.11 | 1650.9 | –
284.65 K | 1051.95 | 1650.2 | –
284.9 K | 1051.79 | 1649.4 | –
285.15 K | 1051.63 | 1648.7 | –
285.4 K | 1051.47 | 1647.9 | –
285.65 K | 1051.31 | 1647.2 | –
285.9 K | 1051.14 | 1646.4 | –
286.15 K | 1050.98 | 1645.9 | –
286.4 K | 1050.82 | 1645.2 | –
286.65 K | 1050.66 | 1644.4 | –
286.9 K | 1050.49 | 1643.7 | –
287.15 K | 1050.33 | 1642.9 | –
287.4 K | 1050.17 | 1642.2 | –
287.65 K | 1050.01 | 1641.5 | –
287.9 K | 1049.85 | 1640.7 | –
288.15 K | 1049.68 | 1640 | 301.35
288.4 K | 1049.52 | 1639.3 | –
288.65 K | 1049.36 | 1638.5 | –
288.9 K | 1049.19 | 1637.8 | –
289.15 K | 1049.03 | 1637.1 | –
289.4 K | 1048.87 | 1636.3 | –
289.65 K | 1048.72 | 1635.6 | –
289.9 K | 1048.56 | 1634.9 | –
290.15 K | 1048.41 | 1634.2 | –
290.4 K | 1048.25 | 1633.4 | –
290.65 K | 1048.09 | 1632.7 | –
290.9 K | 1047.94 | 1632 | –
291.15 K | 1047.79 | 1631.2 | –
291.4 K | 1047.63 | 1630.5 | –
291.65 K | 1047.47 | 1629.8 | –
291.9 K | 1047.31 | 1629.1 | –
292.15 K | 1047.16 | 1628.4 | –
292.4 K | 1047 | 1627.7 | –
292.65 K | 1046.84 | 1626.9 | –
292.9 K | 1046.68 | 1626.2 | –
293.15 K | 1046.53 | 1625.5 | 220.69
293.4 K | 1046.37 | 1624.8 | –
293.65 K | 1046.21 | 1624.1 | –
293.9 K | 1046.06 | 1623.4 | –
294.15 K | 1045.9 | 1622.7 | –
294.4 K | 1045.74 | 1622 | –
294.65 K | 1045.59 | 1621.2 | –
294.9 K | 1045.43 | 1620.5 | –
295.15 K | 1045.27 | 1619.8 | –
295.4 K | 1045.11 | 1619.1 | –
295.65 K | 1044.96 | 1618.4 | –
295.9 K | 1044.8 | 1617.7 | –
296.15 K | 1044.63 | 1617 | –
296.4 K | 1044.48 | 1616.3 | –
296.65 K | 1044.32 | 1615.6 | –
296.9 K | 1044.17 | 1614.9 | –
297.15 K | 1044.01 | 1614.2 | –
297.4 K | 1043.84 | 1613.4 | –
297.65 K | 1043.68 | 1612.7 | –
297.9 K | 1043.52 | 1612 | –
298.15 K | 1043.37 | 1611.3 | 163.08
298.4 K | 1043.2 | 1610.6 | –
298.65 K | 1043.05 | 1609.9 | –
298.9 K | 1042.89 | 1609.2 | –
299.15 K | 1042.73 | 1608.5 | –
299.4 K | 1042.57 | 1607.8 | –
299.65 K | 1042.41 | 1607.1 | –
299.9 K | 1042.25 | 1606.3 | –
300.15 K | 1042.09 | 1605.6 | –
300.4 K | 1041.93 | 1604.9 | –
300.65 K | 1041.77 | 1604.2 | –
300.9 K | 1041.61 | 1603.5 | –
301.15 K | 1041.45 | 1602.8 | –
301.4 K | 1041.29 | 1602.1 | –
301.65 K | 1041.13 | 1601.4 | –
301.9 K | 1040.96 | 1600.7 | –
302.15 K | 1040.81 | 1600 | –
302.4 K | 1040.64 | 1599.3 | –
302.65 K | 1040.49 | 1598.6 | –
302.9 K | 1040.32 | 1597.8 | –
303.15 K | 1040.17 | 1597.2 | 124.67
303.4 K | 1040 | 1596.4 | –
303.65 K | 1039.84 | 1595.7 | –
303.9 K | 1039.68 | 1595 | –
304.15 K | 1039.52 | 1594.3 | –
304.4 K | 1039.36 | 1593.6 | –
304.65 K | 1039.19 | 1592.9 | –
304.91 K | 1039.03 | 1592.2 | –
305.15 K | 1038.87 | 1591.5 | –
305.4 K | 1038.71 | 1590.8 | –
305.65 K | 1038.55 | 1590.1 | –
305.9 K | 1038.39 | 1589.4 | –
306.15 K | 1038.23 | 1588.7 | –
306.4 K | 1038.06 | 1588 | –
306.65 K | 1037.9 | 1587.3 | –
306.9 K | 1037.74 | 1586.6 | –
307.15 K | 1037.58 | 1585.9 | –
307.4 K | 1037.41 | 1585.2 | –
307.65 K | 1037.25 | 1584.5 | –
307.9 K | 1037.09 | 1583.8 | –
308.15 K | – | – | 98.28
